The results in this text go back to patent publication EP4715056A1, “BIO-BASED TRANS-ACONITATE, PREPARATION METHOD THEREFOR AND USE THEREOF” (Qingdao Institute of Bioenergy and Bioprocess Technology, …, priority 2023, dated 2024).

Common to all, as to type: physicochemical
Data set [1] can be described thus: Acid value (KOH titration). The note with it: aconitate/citrate products, Table 4. As to the method: The aconitates and citrates prepared in the above examples and comparative examples were tested for acid value, purity, chromaticity, yield, triester conversion rate, and water content. […] The mixture was neutralized with 0.02 mol·L^-1 potassium hydroxide aqueous solution until a faint pink color appears, and the consumed volume Vo was recorded. 1 g of the sample (accurate to 0.01 g) was weighed using a ground-neck conical flask, then one portion of the above neutralized solution was added. After the sample was completely dissolved, the sample was titrated with 0.02 mol·L^-1 potassium hydroxide-ethanol standard titration solution (the titration should be completed within 30 seconds) until a faint pink color appeared and persisted for 5 seconds without fading, which was considered as an end point. The consumed volume V was recorded. […] Chromatographic column: C18 column; injector: 10 µL micro-syringe; solvent: acetonitrile (HPLC grade); acquisition time: 15 min; mobile phase: 80% acetonitrile (HPLC grade) and 20% deionized water; injection volume: 1 µL; wavelength: 230 nm.

A short description of data set [2]: Chromaticity (platinum-cobalt colorimetry). Particulars: aconitate/citrate products, Table 4; colour comparison at 25°C. The protocol: 3. Chromaticity: preparation of 500# platinum-cobalt colorimetric standard stock solution: 1.2450 g of potassium chloroplatinate and 1.0000 g of cobalt chloride were weighed, with an accuracy of 0.0002 g, the mixture was dissolved in 100 mL of hydrochloric acid, and then diluted to 1000 mL with distilled water. This solution is just the 500# colorimetric standard comparison solution.
Preparation of colorimetric standards below 500#: different amounts of the 500# stock solution was prepared, and diluted with distilled water to the volume of a colorimetric tube to prepare colorimetric standard solutions of any number. The calculation formula is as follows: V = (N×V1)/500 [formula]
In the formula, V is the volume of the 500# standard stock solution taken to prepare the N# colorimetric standard solution, in mL; V1 is the volume of the colorimetric tube used, in mL; and N is the number of the colorimetric standard solution to be prepared.
Color comparison determination was performed at 25°C.

A short description of data set [3]: Water content (Karl Fischer moisture meter). Particulars: aconitate/citrate products, Table 4. The text has this:
6. Water content: a Karl Fischer moisture meter is used to test the water content (retained to two decimal places).

Data set [4] in a line: Residual amounts of fat-soluble and water-soluble pigments (HPLC). Particulars: aconitate/citrate products, Table 4. As to the method:
7. Residual amounts of fat-soluble pigments and water-soluble pigments: • a high-performance liquid chromatograph (HPLC) was used, and the instrument sensitivity and stability of the detector should comply with the provisions of GB/T 16631-2008. Chromatographic column: C18 column; injector: 10 µL micro-syringe; solvent: acetonitrile (HPLC grade); acquisition time: 15 min; mobile phase: 80% acetonitrile (HPLC grade) and 20% deionized water; injection volume: 1 µL; wavelength: 230 nm.
Test: the instrument was adjusted according to the above provisions. After the baseline was stable, 0.2 µL of the sample was injected using a micro-syringe, and the integrator or chromatographic workstation was started at the same time. A pigment concentration-integral area standard curve was established by testing the integral areas of pigments with different concentrations. When the pigment content was measured, the corresponding pigment integral area was automatically given by the instrument, and the pigment concentration was obtained by comparing with the standard curve. The ratio of the pigment concentration to the sample concentration is the pigment content.

Data set [5] is described as follows: Hardness (Shore hardness tester, GB/T 531-2008). The note with it: PVC plastic: 100 parts PVC resin, 35 parts plasticizer, 2 parts oxidized polyethylene wax, 5 parts octyltin maleate. As to the method: The aconitates and tributyl citrate prepared in the above examples and comparative examples were added as plasticizers to PVC resin to obtain PVC plastics. […] The above raw materials were mixed and prepared using the same mixing process to obtain finished PVC products. The performance tests were performed on different plasticizers and the obtained PVC finished products in the above examples and comparative examples. […] Three points were selected for each group of samples, each point was tested once, and a median value was taken. • 2. […] Compatibility: tests were performed using a water value method. Since water molecules are polar, the compatibility between the plasticizer and water can characterize the compatibility between the plasticizer and polar materials (PVC, PLA, and nitrile rubber). When a certain plasticizer has good compatibility with water, it has good compatibility with PVC, and vice versa. In the experiment, 2.5 g of plasticizer and 25 g of acetone were added to a beaker, titrated with a burette filled with deionized water, and agitated while titrating until turbidity appears, and the volume of deionized water consumed was recorded. • 4. Glass transition temperature (Tg): the glass transition temperature was tested using a dynamic mechanical analyzer. Test conditions: nitrogen was taken as the carrier gas, at a test temperature range of -40 to 80°C, a heating rate of 3°C/min, and a frequency of 1 Hz.

The nature of data set [6]: Tensile properties (GB/T 1040-2006): tensile modulus at 100%, elongation at break, elastic modulus. Particulars: PVC plastic with 35 parts plasticizer; 50 mm/min, 25°C. As to the method:
(§1) The aconitates and tributyl citrate prepared in the above examples and comparative examples were added as plasticizers to PVC resin to obtain PVC plastics. The PVC plastics include 100 parts of PVC resin, 35 parts of plasticizer, 2 parts of oxidized polyethylene wax, and 5 parts of octyltin maleate. The above raw materials were mixed and prepared using the same mixing process to obtain finished PVC products. The performance tests were performed on different plasticizers and the obtained PVC finished products in the above examples and comparative examples. […] Three points were selected for each group of samples, each point was tested once, and a median value was taken. • 2. […] Compatibility: tests were performed using a water value method. Since water molecules are polar, the compatibility between the plasticizer and water can characterize the compatibility between the plasticizer and polar materials (PVC, PLA, and nitrile rubber). When a certain plasticizer has good compatibility with water, it has good compatibility with PVC, and vice versa. In the experiment, 2.5 g of plasticizer and 25 g of acetone were added to a beaker, titrated with a burette filled with deionized water, and agitated while titrating until turbidity appears, and the volume of deionized water consumed was recorded. • 4. Glass transition temperature (Tg): the glass transition temperature was tested using a dynamic mechanical analyzer. Test conditions: nitrogen was taken as the carrier gas, at a test temperature range of -40 to 80°C, a heating rate of 3°C/min, and a frequency of 1 Hz.

The nature of data set [7]: Compatibility (water value method). The note with it: 2.5 g plasticizer and 25 g acetone titrated with deionized water until turbidity; Table 5. The protocol:
as §1

The nature of data set [8]: Glass transition temperature (dynamic mechanical analyzer). The note with it: PVC plastic with 35 parts plasticizer; -40 to 80°C, 3°C/min, 1 Hz. As to the method: as §1

In data set [1], `CCCCOC(=O)C=C(CC(=O)OCCCC)C(=O)OCCCC` [Example 23, tributyl aconitate] gave an Acid value of 0.05 KOH/g. For the same molecule, in data set [2], the Chromaticity was 60 Pt-Co. For the same molecule, the Water content in data set [3] is recorded as 0.03%. Further, in data set [4], the “Residual amounts of fat-soluble pigments” value was 1356 ppm and the “Residual amounts of water-soluble pigments” value was 842 ppm. The “Hardness/Shore D” value in data set [5] is listed as 43 Shore D. In data set [6], the Elastic modulus came to 128.7 MPa, the Elongation at break came out at 239.4% and the “Tensile modulus at 100%” value turned out to be 15.6 MPa. In data set [7], this molecule yielded a Compatibility of 13.1 mL. The Tg in data set [8] is 28.4 °C.
`CCCCOC(=O)C=C(CC(=O)OCCCC)C(=O)OCCCC` [Example 24, tributyl aconitate]: the Acid value in data set [1] is recorded as 0.05 KOH/g. The same molecule showed a Chromaticity in data set [2] of 60 Pt-Co. The molecule further displayed a Water content in data set [3] of 0.02%. Further, in data set [4], the “Residual amounts of fat-soluble pigments” value was found to be 1386 ppm and the “Residual amounts of water-soluble pigments” value is 420 ppm. In addition, in data set [5], the “Hardness/Shore D” value stood at 43 Shore D. In addition, in data set [6], the Elastic modulus amounted to 131.0 MPa, the Elongation at break worked out at 242.7% and the “Tensile modulus at 100%” value is reported as 15.7 MPa. The same molecule yielded a Compatibility in data set [7] of 13.1 mL. The Tg in data set [8] turned out to be 28.6 °C.
In data set [1], `CCCCOC(=O)C=C(CC(=O)OCCCC)C(=O)OCCCC` [Example 25, tributyl aconitate] yielded an Acid value of 0.05 KOH/g. This molecule also gave a Chromaticity in data set [2] of 50 Pt-Co. The same molecule came in with a Water content in data set [3] of 0.03%. Further, in data set [4], the “Residual amounts of fat-soluble pigments” value is 865 ppm and the “Residual amounts of water-soluble pigments” value is reported as 454 ppm. Also, the “Hardness/Shore D” value in data set [5] amounted to 45 Shore D. In data set [6], the Elastic modulus was found to be 156.4 MPa, the Elongation at break was determined as 226.5% and the “Tensile modulus at 100%” value is given as 17.2 MPa. For the same molecule, the Compatibility in data set [7] is reported as 12.7 mL. In data set [8], this molecule registered a Tg of 28.2 °C.
The molecule `CCCCOC(=O)C=C(CC(=O)OCCCC)C(=O)OCCCC` [Example 26, tributyl aconitate] showed an Acid value in data set [1] of 0.05 KOH/g. The molecule also gave a Chromaticity in data set [2] of 70 Pt-Co. Further, the Water content in data set [3] is reported as 0.04%. Moreover, in data set [4], the “Residual amounts of fat-soluble pigments” value was found to be 2015 ppm and the “Residual amounts of water-soluble pigments” value is on record as 465 ppm. The “Hardness/Shore D” value in data set [5] is 45 Shore D. Besides, in data set [6], the Elastic modulus worked out at 178.3 MPa, the Elongation at break is reported as 234.1% and the “Tensile modulus at 100%” value was determined as 17.5 MPa. The molecule further showed a Compatibility in data set [7] of 12.2 mL. The molecule further came in with a Tg in data set [8] of 28.8 °C.
In turn, `CCCCOC(=O)C=C(CC(=O)OCCCC)C(=O)OCCCC` [Example 27, tributyl aconitate] had an Acid value in data set [1] of 0.05 KOH/g. In data set [2], the Chromaticity was found to be 200 Pt-Co. The Water content in data set [3] is 0.05%. Moreover, in data set [4], the “Residual amounts of fat-soluble pigments” value was 4650 ppm and the “Residual amounts of water-soluble pigments” value worked out at 415 ppm. Moreover, in data set [5], the “Hardness/Shore D” value turned out to be 45 Shore D. Also, in data set [6], the Elastic modulus was found to be 166.7 MPa, the Elongation at break amounted to 230.3% and the “Tensile modulus at 100%” value is listed as 17.3 MPa. Moreover, the Compatibility in data set [7] came out at 12.4 mL. The Tg in data set [8] stood at 28.5 °C.
In the case of `CCCCOC(=O)C=C(CC(=O)OCCCC)C(=O)OCCCC` [Example 28, tributyl aconitate], in data set [1], the Acid value is recorded as 0.05 KOH/g. This molecule gave a Chromaticity in data set [2] of 40 Pt-Co. In data set [3], the Water content is reported as 0.04%. Besides, in data set [4], the “Residual amounts of fat-soluble pigments” value worked out at 1658 ppm and the “Residual amounts of water-soluble pigments” value turned out to be 408 ppm. In addition, the “Hardness/Shore D” value in data set [5] came to 42 Shore D. Moreover, in data set [6], the Elastic modulus worked out at 88.5 MPa, the Elongation at break came to 248.6% and the “Tensile modulus at 100%” value stood at 15.2 MPa. In data set [7], this molecule came in with a Compatibility of 14.4 mL. This molecule registered a Tg in data set [8] of 28.6 °C.
